According to US12357605B2, “Muscle building agent” (KANEKA CORPORATION, priority 2019, dated 2025):

Test system: muscle satellite cells
Assay: Evaluation of muscle satellite cell activating effect (ratio of BrdU positive cells)
Assay type: cell-based, SD rat
Details: for Ratio of activated muscle satellite cells, Mean: 24 hours culture, BrdU positive cells / total cells, solvent control 41.3%; for muscle satellite cell activating effect: in comparison with the solvent control, result in words
Protocol: The muscle satellite cells activation effect can be evaluated by, for example, the following in vitro test. Specifically, muscle satellite cells are isolated from an animal and cultured in a culture medium containing test sample for 24 hours. Then, bromodeoxyuridine (BrdU) is added thereto at the final concentration of 10 μM, and the mixture is incubated for 2 hours. Next, the muscle satellite cells are fixed at 4° C. for 10 minutes with ice-cooled methanol containing 0.1% H2O2 and are subjected to DNA denaturation treatment at 37° C. for 1 hour using 2 N hydrochloric acid, and BrdU positive cells are detected by using anti-BrdU antibody as a primary antibody, HRP-conjugated anti-mouse IgG antibody as a secondary antibody, and coloring with diaminobenzidine (DAB). The ratio of BrdU positive cells to the total number of cells is calculated as the ratio of activated muscle satellite cells. It is judged with respect to the ratio of activated muscle satellite cells of the muscle building agent according to the present invention that muscle satellite cells are activated in the case where a ratio of activated muscle satellite cells is increased by a treatment with a test substrate in comparison with a solvent control. An increase to a solvent control is preferably 2% or more, more preferably 3% or more and even more preferably 5% or more.
Muscle tissues were isolated from the upper hindlimb and back of 6-month old male SD rat (from Japan SLC). The muscle tissues were trimmed of adipose and connective tissue, minced, and treated with PBS containing 1.25 mg/mL protease (Sigma) at 37° C. for 1 hour. After muscle fiber fragments and tissue debris were removed by centrifugation, the cells were seeded on plates coated with polylysine (Sigma) and fibronectin (Sigma). After the cells were cultured in 5% CO2 atmosphere at 37° C. for 24 hours, muscle satellite cells were isolated by washing with PBS. DMEM (“Dulbecco's Modified Eagle Medium”, Thermo Fisher Scientific) containing 10% horse serum (Thermo Fisher Scientific) was used as a culture media. The culture media is hereinafter abbreviated as “10% HS-DMEM”.
The casuarinin prepared in Example 1 or the stachyurin prepared in Example 2 was dissolved in water and added in 10% HS-DMEM to prepare the 10% HS-DMEM containing casuarinin or stachyurin. The culture medium of the isolated muscle satellite cells were exchanged for the 10% HS-DMEM containing casuarinin or stachyurin, and the muscle satellite cells were cultured for 24 hours. Casuarinin concentrations were adjusted to 0.01 to 1.1 μM (13 to 1000 ng/mL), and stachyurin concentrations were adjusted to 0.09 to 0.4 μM (83 to 333 ng/mL). As a solvent control, 10% HS-DMEM was used.
Bromodeoxyuridine (BrdU, Sigma) was added to the culture medium at the final concentration of 10 μM, and the mixture was incubated for 2 hours. Then, the muscle satellite cells were fixed at 4° C. for 10 minutes with ice-cooled methanol containing 0.1% H2O2 and were further subjected to DNA denaturation treatment using 2 N hydrochloric acid at 37° C. for 1 hour, and BrdU positive cells were detected by using anti-BrdU antibody (Sigma) as a primary antibody, HRP-conjugated anti-mouse IgG antibody (Sigma) as a secondary antibody, and coloring with diaminobenzidine (DAB, Sigma). The ratio of BrdU positive cells to the total number of cells was calculated as the ratio of activated muscle satellite cells. The experiments were performed in 12 independent cell cultures in the case of the solvent control, and in 3 independent cultures in each concentration in the case of casuarinin or stachyurin. Data were expressed as the mean and standard deviation. The “*” in FIGS. 1 and 2 represents that the difference to the solvent control was statistically significant at p<0.05 by Dunnett's test. […]

| Structure (SMILES) | Ratio of activated muscle satellite cells, Mean (100 ng/mL) | other results |
| --- | --- | --- |
| C[C@@H]1O[C@@H](Oc2c(-c3ccc(O)c(O)c3)oc3cc(O)cc(O)c3c2=O)[C@H](O)[C@H](O)[C@H]1O [Quercitrin, quercitrin, reference compound] | 40.0% | – |
| C[C@@H]1OC(Oc2c(-c3cc(O)c(O)c(O)c3)oc3cc(O)cc(O)c3c2=O)[C@H](O)[C@H](O)[C@H]1O (stereo partly drawn) [Myricitrin, myricitrin, reference compound] | 41.8% | – |
| O=C(O[C@@H]1COC(=O)c2cc(O)c(O)c(O)c2-c2c(cc(O)c(O)c2O)C(=O)O[C@H]1[C@@H]1OC(=O)c2cc(O)c(O)c(O)c2-c2c(O)c(O)c(O)c3c2C(=O)O[C@H]1C3O)c1cc(O)c(O)c(O)c1 (stereo partly drawn) [Casuarinin, casuarinin] | 50.8% | Ratio of activated muscle satellite cells, Mean (0.01 μM (13 ng/mL)): 43.3%; Ratio of activated muscle satellite cells, Mean (0.03 μM (25 ng/mL)): 44.9%; Ratio of activated muscle satellite cells, Mean (0.05 μM (50 ng/mL)): 51.3%; Ratio of activated muscle satellite cells, Mean (0.3 μM (250 ng/mL)): 48.8%; Ratio of activated muscle satellite cells, Mean (1.1 μM (1000 ng/mL)): 43.7%; muscle satellite cell activating effect: significant muscle satellite cell activating effect |
| O=C1OC[C@H]2OC(=O)c3cc(O)c(O)c(O)c3-c3c(O)c(O)c(O)c4c3C(=O)O[C@H]([C@H]3OC(=O)c5c-4c(O)c(O)c(O)c5[C@H]3O)[C@@H]2OC(=O)c2cc(O)c(O)c(O)c2-c2c1cc(O)c(O)c2O [Castalagin, castalagin, reference compound] | 39.4% | – |
| O=C(O[C@@H]1COC(=O)c2cc(O)c(O)c(O)c2-c2c(cc(O)c(O)c2O)C(=O)O[C@H]1[C@@H]1OC(=O)c2cc(O)c(O)c(O)c2-c2c(O)c(O)c(O)c3c2C(=O)O[C@H]1[C@H]3O)c1cc(O)c(O)c(O)c1 [Stachyurin, stachyurin] | – | Ratio of activated muscle satellite cells, Mean (0.09 μM (83 ng/mL)): 44.7%; Ratio of activated muscle satellite cells, Mean (0.4 μM (333 ng/mL)): 48.5%; muscle satellite cell activating effect: significant muscle satellite cell activating effect |
| Oc1cc(O)c2c(c1)O[C@@H](c1ccc(O)c(O)c1)[C@H](O)C2 [Catechin, catechin, reference compound] | 42.1% | – |
| O=c1oc2c(O)c(O)cc3c(=O)oc4c(O)c(O)cc1c4c23 [Ellagic acid, ellagic acid, reference compound] | 38.3% | – |
| O=c1c(O[C@@H]2O[C@H](CO)[C@H](O)[C@H](O)[C@H]2O)c(-c2ccc(O)c(O)c2)oc2cc(O)cc(O)c12 [Hyperin, hyperin, reference compound] | 38.2% | – |
| O=C(O)c1cc(O)c(O)c(O)c1 [Gallic acid, gallic acid, reference compound] | 37.8% | – |
| O=C(O[C@@H]1OC2COC(=O)c3cc(O)c(O)c(O)c3-c3c(cc(O)c(O)c3O)C(=O)O[C@H]2[C@@H]2OC(=O)c3cc(O)c(O)c(O)c3-c3c(cc(O)c(O)c3O)C(=O)OC12)c1cc(O)c(O)c(O)c1 (stereo partly drawn) [Casuarictin, casuarictin, reference compound] | 39.2% | – |
